Measurements published in PubChem BioAssay (NCI).
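Interpolation was linear, between the two tested concentrations surrounding the appropriate level; five concentrations were tested over 48 hours in 96-well plates. Definition used: TGI = concentration required for complete inhibition of growth.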

Legend:
Assay in all cases: growth of human tumour cells (NCI), 48 h
NCI-H226 lung = system: NCI-H226 lung
HT29 colon = system: HT29 colon
SW-620 colon = system: SW-620 colon
NCI-H460 lung = system: NCI-H460 lung
LOX IMVI melanoma = system: LOX IMVI melanoma
SNB-19 CNS = system: SNB-19 CNS
SF-268 CNS = system: SF-268 CNS
SNB-75 CNS = system: SNB-75 CNS
TK-10 renal = system: TK-10 renal
OVCAR-8 ovarian = system: OVCAR-8 ovarian
UACC-257 melanoma = system: UACC-257 melanoma
IGROV1 ovarian = system: IGROV1 ovarian
SK-OV-3 ovarian = system: SK-OV-3 ovarian
HCT-116 colon = system: HCT-116 colon
PC-3 prostate = system: PC-3 prostate
CAKI-1 renal = system: CAKI-1 renal
MDA-MB-231 breast = system: MDA-MB-231 breast
DU-145 prostate = system: DU-145 prostate
MCF7 breast = system: MCF7 breast
T-47D breast = system: T-47D breast

Structure (SMILES)	TGI (NCI-H226 lung) [µM]	TGI (HT29 colon) [µM]	TGI (SW-620 colon) [µM]	TGI (NCI-H460 lung) [µM]	TGI (LOX IMVI melanoma) [µM]	TGI (SNB-19 CNS) [µM]	TGI (SF-268 CNS) [µM]	TGI (SNB-75 CNS) [µM]	TGI (TK-10 renal) [µM]	TGI (OVCAR-8 ovarian) [µM]	TGI (UACC-257 melanoma) [µM]	TGI (IGROV1 ovarian) [µM]	TGI (SK-OV-3 ovarian) [µM]	TGI (HCT-116 colon) [µM]	TGI (PC-3 prostate) [µM]	TGI (CAKI-1 renal) [µM]	TGI (MDA-MB-231 breast) [µM]	TGI (DU-145 prostate) [µM]	TGI (MCF7 breast) [µM]	TGI (T-47D breast) [µM]
O=C(O)C(Cc1c[nH]c2ccccc12)N=Cc1nc(-c2ccccc2)oc1O (centres undefined)	> 100	> 100	> 100	> 100	> 100	> 100	> 100	> 100	> 100	> 100	> 100	> 100	> 100	> 100	–	–	–	–	–	–
CC(NC(=O)C(N)Cc1ccc(O)cn1)C(=O)O (centres undefined)	> 100	> 100	> 100	> 100	> 100	> 100	> 100	–	> 100	> 100	> 100	> 100	–	> 100	> 100	> 100	> 100	> 100	> 100	–
O=C(Cn1cc(-c2ccccc2)nn1)NC1CCCC1	> 100	> 100	> 100	> 100	> 100	> 100	> 100	> 100	> 100	> 100	> 100	> 100	–	> 100	> 100	> 100	> 100	> 100	> 100	–
CC1(C)C(O)C[C@]23CCC[C@](C)(C[C@@H](O)C12)C3 (some centres undefined)	> 100	> 100	> 100	> 100	> 100	> 100	> 100	> 100	> 100	> 100	> 100	> 100	> 100	–	> 100	> 100	–	–	> 100	–
Cn1c(=O)c2c(no[n+]2[O-])n(C)c1=O	59.3	> 100	59.9	> 100	> 100	64.8	55.7	99.2	60.7	37	84.6	58.7	> 100	> 100	> 100	35.2	48.1	–	> 100	> 100
COC1O[C@@H]2CCN3C(=O)[C@@H](OC(=O)c4ccc([N+](=O)[O-])cc4)[C@H]1C23 (some centres undefined)	> 100	> 100	> 100	> 100	> 100	–	> 100	> 100	> 100	> 100	> 100	> 100	> 100	> 100	–	> 100	> 100	> 100	> 100	> 100
OCC1NCC(O)C(O)C1O (centres undefined)	–	> 100	> 100	> 100	–	> 100	> 100	> 100	> 100	> 100	> 100	> 100	> 100	> 100	> 100	> 100	–	> 100	> 100	–
O=C(C#CP(=O)(O)c1ccccc1)c1ccccc1	–	> 100	> 100	> 100	> 100	> 100	> 100	> 100	> 100	> 100	> 100	> 100	> 100	> 100	> 100	> 100	–	> 100	> 100	> 100
CC(C)(C)[Si](C)(C)OCCCCC1CC2(S(=O)(=O)C3=CC=C=C=C3)ON1CC2S(=O)(=O)c1ccccc1 (centres undefined)	> 100	> 100	> 100	> 100	–	> 100	> 100	> 100	> 100	> 100	> 100	> 100	> 100	> 100	–	–	> 100	> 100	> 100	> 100
CCOP(=O)(OCC)C1CC(O)CN1OC(=O)C(C)(C)C (centres undefined)	> 100	> 100	> 100	–	> 100	> 100	> 100	> 100	> 100	> 100	> 100	> 100	> 100	> 100	> 100	–	> 100	> 100	> 100	–
C[C@]12CCC(=O)C=C1CC[C@@H]1[C@@H]2CC[C@]2(C)C(=O)[C@H](n3ccnc3)C[C@@H]12	> 100	> 100	> 100	> 100	> 100	> 100	> 100	> 100	> 100	> 100	> 100	> 100	–	> 100	> 100	> 100	> 100	> 100	> 100	–
COc1ccccc1C(C1=C(O)COC1=O)c1cc2c(cc1OC(C)=O)OCO2 (centres undefined)	> 100	> 100	> 100	> 100	> 100	> 100	> 100	> 100	> 100	> 100	> 100	> 100	> 100	> 100	> 100	> 100	> 100	> 100	> 100	–
COC1=NC(NC2OCC(O)C(O)C2O)=C(NC(C)=O)CN1C (centres undefined)	> 100	> 100	> 100	> 100	> 100	> 100	> 100	> 100	> 100	> 100	–	–	> 100	> 100	–	> 100	> 100	> 100	> 100	> 100
